Test results from US12138274B2, “Compositions and methods for the treatment of peripheral artery disease and cardiopulmonary diseases” (BOARD OF REGENTS OF THE UNIVERSITY OF NEBRASKA, priority 2018, dated 2024).

What was measured:
Type in all cases: in vivo, rat
[1] = test system: Interferon Regulatory Factor 8 (IRF8); test: IRF8 protein expression in T1-T4 DRGs and stellate ganglia after bleomycin lung injury; settings: 4-weeks post-bleomycin rats
rats = test: Premature ventricle contractions after intra-tracheal bleomycin; settings: single intra-tracheal delivery 2.5 mg/kg
From the text: Bleomycin induces experimental lung fibrosis in a variety of animal models and it causes inflammatory and fibrotic reactions within a short period of time, even more so after intratracheal instillation.

vagotomized rats = test: Pressor and sympatho-excitatory response to topical bradykinin in bleomycin-treated rats; settings: BK 10 μg/ml; 4 weeks after bleomycin, compared to sham
Protocol: For measuring vitals of the rats, a Millar catheter (SPR 524; size, 3.5-Fr; Millar Instruments, Houston, TX) was advanced through the right common carotid artery and progressed into the aorta and left in place to record arterial pressure (AP), mean arterial pressure (MAP), and heart rate (HR), using PowerLab (Model 16S) and LabChart software (version 7.0) (ADInstruments, Colorado Springs, CO). Renal sympathetic nerve activity (RSNA) and integrated RSNA (iRSNA) were also measured. RSNA was recorded as described (Gao, et al. (2005) Hypertension 45:1173-1181; Wang, et al. (2010) J. Appl. Physiol., 108:1365-1375; Becker, et al. (2016) J. Physiol., 594:5711-5725). In brief, the left kidney, renal artery, and nerves were exposed through a left retroperitoneal flank incision. Sympathetic nerves running on or beside the renal artery were identified. The renal sympathetic nerves were placed on a pair of platinum-iridium recording electrodes and cut distally to avoid recording afferent activity. Nerve activity was amplified ([…]) and filtered (bandwidth: 100 to 3000 Hz) using a Grass P55C preamplifier. […] At the end of the experiment, the rat was euthanized with an overdose of pentobarbital sodium. Respective noise levels were subtracted from the nerve recording data before percent changes from baseline were calculated. […]

Substance: bleomycin
- IRF8 protein expression in T1-T4 DRGs and stellate ganglia (FIG. 12) [1]: increases
- premature ventricle contractions (PVC) (FIG. 14) (rats): dramatic increase
- pressor and sympatho-excitatory response to topical BK (FIG. 13) (vagotomized rats): exaggerated pressor and sympatho-excitatory response
